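In this assay, cells in 96-well plates receive the compound at five concentrations for 48 hours. Endpoints are linearly interpolated between the surrounding concentrations. GI50 = concentration required for 50% inhibition of growth. TGI: concentration producing complete growth inhibition.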
Assays:
Assay in all cases: growth of human tumour cells (NCI), 48 h
[1] = test system: SN12C renal
[2] = test system: SF-268 CNS
[3] = test system: TK-10 renal
[4] = test system: EKVX NSCLC
[5] = test system: LOX IMVI melanoma
[6] = test system: NCI-H460 lung
[7] = test system: SK-MEL-2 melanoma
[8] = test system: OVCAR-4 ovarian
[9] = test system: A549 NSCLC
[10] = test system: K-562 leukemia
[11] = test system: HCT-116 colon
[12] = test system: CCRF-CEM leukemia
[13] = test system: SF-295 CNS
[14] = test system: MCF7 breast
[15] = test system: HS 578T breast
[16] = test system: PC-3 prostate
[17] = test system: NCI/ADR-RES ovarian
[18] = test system: DU-145 prostate

SMILES	TGI [1] [µM]	TGI [2] [µM]	TGI [3] [µM]	TGI [4] [µM]	TGI [5] [µM]	TGI [6] [µM]	TGI [7] [µM]	TGI [8] [µM]	TGI [9] [µM]	TGI [10] [µM]	TGI [11] [µM]	GI50 [12] [µM]	TGI [12] [µM]	TGI [13] [µM]	TGI [14] [µM]	TGI [15] [µM]	TGI [16] [µM]	TGI [17] [µM]	TGI [18] [µM]
Cc1ccc2[nH]c3c(C)c4c(c(C)c3c2c1)CN(C)C=C4	0.682	0.975	21.9	10	17	12	3.2	6.76	2.99	> 38.9	10.6	2.33	22	3.73	–	–	–	–	–
Cc1[nH]n(C2=NCCN2)c(=O)c1C	–	> 100	> 100	> 100	> 100	> 100	> 100	> 100	> 100	> 100	> 100	–	> 100	> 100	> 100	> 100	> 100	> 100	–
O=c1c(-c2ccccc2)c2oc(c1-c1ccccc1)CS(=O)(=O)CCC2	44.2	83.3	> 100	> 100	45.8	> 100	> 100	–	> 100	> 100	26.3	–	> 100	> 100	–	–	–	–	–
CC1=[N+]([O-])C(C)(C)N(N=O)C1(C)C	> 10	> 10	> 10	> 10	–	> 10	> 10	> 10	> 10	> 10	> 10	–	> 10	> 10	> 10	–	> 10	> 10	> 10
CC1(C)O[C@H]([C@H](O)c2nnc3ccc(Cl)nn23)[C@@H]([C@H]2COC(C)(C)O2)O1	> 100	> 100	> 100	> 100	> 100	> 100	> 100	> 100	> 100	–	> 100	–	> 100	> 100	> 100	> 100	> 100	> 100	> 100
CC(C)/C(Cl)=N/OC(=O)Nc1cccc(C(F)(F)F)c1	20.1	> 64.9	12.7	7.1	6.43	34.3	32.5	16.6	39.1	–	24.7	–	13.8	33	16.5	> 69.4	29.8	16.7	34.5
COc1c(C)c2c(c3c1c(=O)c1ccccc1n3C)C=CC(C)(C)O2	> 100	91.4	> 100	> 100	32.9	62	48.3	–	26.7	66	44.8	–	83.9	45.8	–	–	–	–	–
c1ccc(N=C(N2CCOCC2)N(CCN2CCOCC2)c2ccccc2)cc1	> 100	> 100	> 100	> 100	> 100	> 100	> 100	> 100	> 100	> 100	> 100	–	> 100	> 100	> 100	> 100	> 100	–	> 100
CC(C)(C)OC(=O)[C@@H]1CCC(=S)N1Cc1ccccc1	> 100	–	> 100	> 100	> 100	> 100	> 100	> 100	> 100	> 100	> 100	–	> 100	> 100	> 100	–	> 100	> 100	> 100
CC1CN(c2ccc(Cl)cc2)CC(C)(C)OC(=O)O1 (centres undefined)	> 100	> 100	> 100	> 100	> 100	> 100	> 100	> 100	> 100	> 100	> 100	–	> 100	> 100	–	–	–	–	–
Cn1c2c(c3ccccc31)CCN1OCC=C[C@@H](C(=O)O)[C@@H]21	> 100	> 100	> 100	> 100	> 100	> 100	> 100	> 100	> 100	–	> 100	–	–	–	> 100	> 100	> 100	> 100	> 100
C1=Nc2ccc(cc2)N=Cc2ccccc2OCc2cccc(n2)COc2ccccc21	> 100	–	> 100	> 100	> 100	> 100	> 100	> 100	> 100	> 100	> 100	–	> 100	> 100	> 100	–	> 100	> 100	> 100
COc1cc(OC)c2ssc3c(OC)cc(OC)c4ssc1c2-c43	> 100	> 100	> 100	> 100	> 100	> 100	> 100	> 100	> 100	> 100	> 100	–	> 100	> 100	–	–	–	–	–
O=C(CSc1nnc(Cc2ccccc2)o1)Nc1cccc(Cl)c1	> 100	> 100	> 100	> 100	> 100	> 100	> 100	> 100	> 100	> 100	> 100	–	> 100	> 100	–	–	–	–	–
CCOC(=O)C(NC(=O)C(CCCCNP(=O)(OCC)OCC)NC(=O)C(C)NC(C)=O)C(C)C (centres undefined)	> 100	> 100	> 100	> 100	> 100	> 100	> 100	> 100	> 100	> 100	> 100	–	> 100	> 100	> 100	–	> 100	> 100	> 100
Cc1cc(=O)oc2cc(SC(=O)N(C)C)ccc12	> 100	> 100	> 100	> 100	> 100	> 100	> 100	> 100	> 100	–	> 100	–	–	> 100	> 100	> 100	> 100	> 100	> 100
CC(=O)NC(CCCCN(Cc1ccccc1)C(=O)NCCCl)C(=O)NCc1ccccc1 (centres undefined)	> 100	> 100	–	> 100	–	> 100	> 100	> 100	> 100	> 100	> 100	–	> 100	> 100	–	–	–	–	–
CC1(C)C=Cc2c(cc3oc4ccc5c(c4c(=O)c3c2O)C=CC(C)(C)O5)O1	> 100	> 100	> 100	> 100	> 100	–	> 100	> 100	> 100	–	> 100	–	> 100	> 100	> 100	> 100	> 100	> 100	> 100
CC(C)C1C(=O)NC(CO)Cc2c[nH]c3c(C(c4c[nH]c5ccccc45)C(O)CO)ccc(c23)N1C (centres undefined)	> 100	> 100	> 100	> 100	> 100	> 100	> 100	> 100	> 100	> 100	> 100	–	> 100	> 100	–	–	–	–	–
CCOC(=O)/C(C=Nc1c(C)n(C)n(-c2ccccc2)c1=O)=C(/O)c1ccccc1	> 100	> 100	> 100	> 100	> 100	> 100	> 100	> 100	> 100	> 100	> 100	–	> 100	> 100	> 100	> 100	> 100	–	> 100
CCOc1cc2ccc3c4cc(OC)c(OC)cc4cnc3c2cc1OCC	> 100	> 100	> 100	> 100	–	> 100	> 100	> 100	> 100	> 100	> 100	–	> 100	> 100	–	–	–	–	–
N#CC(/C(=N\NC(=O)c1ccncc1)C(=O)Nc1ccc([N+](=O)[O-])cc1[N+](=O)[O-])c1nc(-c2ccc(Br)cc2)cs1 (centres undefined)	–	> 100	> 100	> 100	> 100	> 100	> 100	> 100	> 100	> 100	> 100	–	> 100	> 100	–	–	–	–	–
CN(C)C(=S)N1C(=S)N(c2ccccc2)C(=Nc2ccccc2)C1=Nc1ccccc1	> 100	> 100	> 100	> 100	> 100	> 100	> 100	> 100	> 100	> 100	> 100	–	> 100	> 100	–	> 100	> 100	> 100	> 100
CC(C)(Br)C(Br)CCC(=CCBr)CBr (mixture of isomers)	4.29	4.85	22.5	49.7	–	9.9	9.32	17	28.3	6.7	4.41	–	6.1	10.9	13.2	49.7	–	–	22.3
Oc1cccc(-c2ccc3c4c2O[C@H]2c5[nH]c6ccccc6c5C[C@@]5(O)[C@@H](C3)N(CC3CC3)CC[C@]425)c1	3.04	3.06	4.34	29.7	3.19	–	5.13	2.96	3.22	–	3.22	–	10.4	3.21	–	3.55	3.44	4.69	3.36
Cc1c(C#N)c(N)[nH]c(=S)c1C#N	> 100	> 100	> 100	> 100	> 100	> 100	> 100	–	> 100	> 100	> 100	–	> 100	> 100	> 100	> 100	> 100	–	> 100
O=C(/C=C/c1ccc(O)c(O)c1)OC1C[C@@](O)(C(=O)O)C[C@@H](O)[C@H]1OC(=O)/C=C/c1ccc(O)c(O)c1 (some centres undefined)	–	> 100	> 100	> 100	> 100	> 100	> 100	> 100	> 100	> 100	> 100	–	> 100	> 100	–	–	–	–	–
O=c1cc(-c2ccccc2)oc2cc(OCC(O)COc3ccc4c(=O)cc(-c5ccccc5)oc4c3)ccc12	–	90.3	> 100	> 100	> 100	> 100	53.4	–	> 100	> 100	> 100	–	> 100	> 100	–	–	–	–	–
N#CC1(C#N)NC(c2cccnc2)C(C#N)(C#N)NC1c1cccnc1 (centres undefined)	> 100	> 100	> 100	> 100	> 100	–	> 100	> 100	> 100	> 100	> 100	–	> 100	> 100	> 100	–	> 100	> 100	> 100
COc1ccc(/C=N/N=C(\N)NO)c(Cl)c1O	> 100	> 100	–	> 100	> 100	–	70.6	> 100	49.6	> 100	> 100	–	> 100	22.4	–	–	–	–	–
